Common to all, as to type: functional
Assay [1] is described as follows: Antioxidant activity assessed as AAPH radical scavenging activity at 12.5 uM ORAC assay.
Assay [2] in a line: Antioxidant activity assessed as DPPH radical scavenging activity incubated for 30 mins. On the technique in general: Loss of DPPH colour is used to gauge radical scavenging.
Assay [3] concerns PC-12. As to the kind of experiment: Cytoprotective activity against H2O2-induced oxidative injury in rat PC-12 cells assessed as cell viability at 10 uM incubated for 24 hrs (reference value: 46.91 +/- 3.74%). The following applies: for viability at 10 µM: read-out: Activity.

On to `COC(=O)c1c(C(=O)c2c(O)cc(C)cc2OC)c(OC)cc(O)c1[S@@+](C)[O-]`, for which, in assay [1], the Activity (umolequiv/umol) came to 1.76. For the same molecule, the IC50 in assay [2] is more than 100 µM.
On to `COC(=O)c1c(C(=O)c2c(O)cc(C)cc2OC)c(OC)cc(O)c1[S@+](C)[O-]`, for which the Activity (umolequiv/umol) in assay [1] is 1.59. For the same molecule, the IC50 in assay [2] is more than 100 µM.
On to `COC(=O)c1c(SC[C@H]2NC(=O)CNC2=O)c(O)cc(OC)c1C(=O)c1c(O)cc(C)cc1OC`, for which the Activity (umolequiv/umol) in assay [1] was 0.78. Further, the IC50 in assay [2] is more than 100 µM. The viability at 10 µM in assay [3] amounted to 54.2%.
Turning to `COC(=O)c1c2c(cc(OC)c1C(=O)c1c(O)cc(C)cc1OC)O[C@@H](OC)CS2`, in assay [1], the Activity (umolequiv/umol) was 0.08. In assay [2], the IC50 was more than 100 µM.
As to `COC(=O)c1cc(O)cc(OC)c1C(=O)c1c(O)cc(C)cc1OC`, the Activity (umolequiv/umol) in assay [1] came out at 1.55. Further, in assay [2], the IC50 was more than 100 µM. For the same molecule, the viability at 10 µM in assay [3] stood at 51.7%.
Turning to `COC(=O)c1c(C(=O)c2c(O)cc(C)cc2OC)c(OC)cc(O)c1[S+](C)[O-]` (racemic), in assay [1], the Activity (umolequiv/umol) was found to be 1.73. Also, the IC50 in assay [2] is more than 100 µM. In addition, the viability at 10 µM in assay [3] was determined as 62.4%.
Take `COc1c(O)c(O)c(C)c2sc(CO)nc12`: in assay [1], the Activity (umolequiv/umol) was determined as 0.66. Moreover, the IC50 in assay [2] amounted to 23.7 µM. Besides, the viability at 10 µM in assay [3] amounted to 43.2%.
The corresponding values for `COC1=CC(=O)C(C)=C(O)C1=O` are 0.67, 17.3 µM and 50%.
`COC(=O)c1c2c(cc(OC)c1C(=O)c1c(O)cc(C)cc1OC)OC(OC)CS2` (racemic): the Activity (umolequiv/umol) in assay [1] was found to be 0.03. In addition, the IC50 in assay [2] was more than 100 µM. Further, the viability at 10 µM in assay [3] turned out to be 63.2%.
As for VITAMIN E, the Activity in assay [3] stood at 57.7%.
For the molecule `COC(=O)CSc1c(O)cc(OC)c(C(=O)c2c(O)cc(C)cc2OC)c1C(=O)OC`, the Activity (umolequiv/umol) in assay [1] was 1.65. The IC50 in assay [2] was more than 100 µM. Moreover, the viability at 10 µM in assay [3] came to 49.1%.
On to `O=C1O[C@H]([C@@H](O)CO)C(O)=C1O` [ASCORBIC ACID], for which, in assay [2], the IC50 worked out at 11.9 µM.
On to `COc1c(O)c(O)c(C)c2scnc12`, for which, in assay [1], the Activity (umolequiv/umol) is 0.73. In addition, the IC50 in assay [2] stood at 3.45 µM. The viability at 10 µM in assay [3] came to 47.9%.
For `COC(=O)c1c2c(cc(OC)c1C(=O)c1c(O)cc(C)cc1OC)O[C@H](OC)CS2`, the Activity (umolequiv/umol) in assay [1] was 0.02. In assay [2], the half-maximal inhibitory concentration (IC50) is more than 100 µM.

A word on the IC50: it is the concentration at which inhibition is half-maximal.

These data come from ChEMBL document CHEMBL5136997, “Sulfur-Containing Phenolic Compounds from the Cave Soil-Derived Aspergillus fumigatus GZWMJZ-152” (J Nat Prod, 2022).
